Among the targets are D(3) dopamine receptor (Homo sapiens, UniProt P35462); Histamine H3 receptor (Homo sapiens, UniProt Q9Y5N1); D(1A) dopamine receptor (Homo sapiens, UniProt P21728).
Another experiment addresses Bile salt export pump (Homo sapiens, UniProt O95342). It is filed as functional.
The target in experiment [1] is cGMP-inhibited 3',5'-cyclic phosphodiesterase 3A (Homo sapiens, UniProt Q14432). In kind it is functional.
For experiment [2], the target named is 5-hydroxytryptamine receptor 2B (Homo sapiens, UniProt P41595). In kind it is functional, cell-based.
Sequence of 5-hydroxytryptamine receptor 2B (P41595 whole entry): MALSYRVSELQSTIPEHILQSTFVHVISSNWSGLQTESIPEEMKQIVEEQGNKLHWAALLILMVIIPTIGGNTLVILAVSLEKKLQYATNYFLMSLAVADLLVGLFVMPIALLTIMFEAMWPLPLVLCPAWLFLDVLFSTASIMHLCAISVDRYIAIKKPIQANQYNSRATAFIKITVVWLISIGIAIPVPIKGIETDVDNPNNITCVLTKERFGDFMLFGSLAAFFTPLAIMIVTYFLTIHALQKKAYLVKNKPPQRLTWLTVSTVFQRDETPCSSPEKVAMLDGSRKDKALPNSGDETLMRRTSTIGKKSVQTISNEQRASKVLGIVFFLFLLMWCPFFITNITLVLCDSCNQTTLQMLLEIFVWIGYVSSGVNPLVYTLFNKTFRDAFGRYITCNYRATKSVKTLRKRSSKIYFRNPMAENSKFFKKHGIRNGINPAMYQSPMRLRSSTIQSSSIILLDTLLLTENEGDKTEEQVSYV
For experiment [3], the target named is T1, 5-hydroxytryptamine receptor 1A (Homo sapiens, UniProt P08908).
T1 sequence (P08908 whole entry): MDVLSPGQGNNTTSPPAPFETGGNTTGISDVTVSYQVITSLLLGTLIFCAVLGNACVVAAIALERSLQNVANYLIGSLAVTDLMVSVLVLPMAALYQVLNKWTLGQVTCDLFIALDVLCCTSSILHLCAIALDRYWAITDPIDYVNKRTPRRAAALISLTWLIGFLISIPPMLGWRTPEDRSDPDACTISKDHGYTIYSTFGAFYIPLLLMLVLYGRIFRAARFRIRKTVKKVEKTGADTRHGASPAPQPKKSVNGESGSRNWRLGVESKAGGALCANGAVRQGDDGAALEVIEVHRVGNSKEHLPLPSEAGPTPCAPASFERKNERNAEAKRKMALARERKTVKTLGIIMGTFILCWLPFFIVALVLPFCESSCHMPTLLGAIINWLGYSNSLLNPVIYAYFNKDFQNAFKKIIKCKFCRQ

Experiment [4] concerns the target T2, Thromboxane A2 receptor (Homo sapiens, UniProt P21731).
T2 sequence (P21731 whole entry): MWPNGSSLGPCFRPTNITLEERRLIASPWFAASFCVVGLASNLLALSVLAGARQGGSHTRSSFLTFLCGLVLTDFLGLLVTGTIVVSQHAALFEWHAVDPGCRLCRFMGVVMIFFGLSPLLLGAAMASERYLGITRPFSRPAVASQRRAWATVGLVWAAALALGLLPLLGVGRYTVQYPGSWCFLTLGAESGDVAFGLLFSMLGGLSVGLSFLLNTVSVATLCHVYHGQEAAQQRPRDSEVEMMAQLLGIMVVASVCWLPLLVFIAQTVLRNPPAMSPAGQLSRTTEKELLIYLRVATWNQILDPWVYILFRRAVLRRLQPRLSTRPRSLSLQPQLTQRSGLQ
In kind it is functional, cell-based.

Experiment [5] addresses T3, Alpha-2A adrenergic receptor (Homo sapiens, UniProt P08913).
T3 sequence (P08913 whole entry): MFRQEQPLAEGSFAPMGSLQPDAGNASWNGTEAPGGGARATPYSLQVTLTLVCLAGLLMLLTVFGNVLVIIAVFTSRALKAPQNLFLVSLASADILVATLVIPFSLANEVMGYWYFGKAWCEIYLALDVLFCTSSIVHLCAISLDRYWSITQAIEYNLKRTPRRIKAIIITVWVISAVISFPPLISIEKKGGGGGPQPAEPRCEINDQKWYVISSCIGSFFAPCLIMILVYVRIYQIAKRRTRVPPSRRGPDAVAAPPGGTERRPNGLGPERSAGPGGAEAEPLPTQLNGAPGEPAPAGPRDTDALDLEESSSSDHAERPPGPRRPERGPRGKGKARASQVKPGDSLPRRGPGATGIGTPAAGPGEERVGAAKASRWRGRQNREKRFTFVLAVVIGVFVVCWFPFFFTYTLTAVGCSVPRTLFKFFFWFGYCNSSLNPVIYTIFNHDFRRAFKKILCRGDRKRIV

The target in experiment [6] is Prostaglandin G/H synthase 1 (Homo sapiens, UniProt P23219). In kind it is functional.
Sequence of Prostaglandin G/H synthase 1 (P23219 whole entry): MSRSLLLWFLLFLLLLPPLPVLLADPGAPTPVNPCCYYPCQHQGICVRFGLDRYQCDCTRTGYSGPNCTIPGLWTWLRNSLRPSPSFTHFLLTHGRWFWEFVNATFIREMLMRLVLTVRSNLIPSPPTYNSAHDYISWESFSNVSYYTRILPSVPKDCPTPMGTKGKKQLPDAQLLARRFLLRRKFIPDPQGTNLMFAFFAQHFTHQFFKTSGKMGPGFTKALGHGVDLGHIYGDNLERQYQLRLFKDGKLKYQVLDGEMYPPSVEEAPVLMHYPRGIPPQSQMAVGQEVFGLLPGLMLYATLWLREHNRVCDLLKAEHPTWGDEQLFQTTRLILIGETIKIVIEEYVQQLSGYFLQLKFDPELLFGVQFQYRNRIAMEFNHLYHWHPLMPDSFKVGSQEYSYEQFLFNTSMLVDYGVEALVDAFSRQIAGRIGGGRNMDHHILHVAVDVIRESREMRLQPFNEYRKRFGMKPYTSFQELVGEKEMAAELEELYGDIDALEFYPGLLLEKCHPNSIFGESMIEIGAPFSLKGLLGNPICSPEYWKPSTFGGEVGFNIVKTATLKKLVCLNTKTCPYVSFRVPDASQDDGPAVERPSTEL
The next experiment concerns the target T4, Progesterone receptor (Homo sapiens, UniProt P06401).
T4 sequence (P06401 whole entry): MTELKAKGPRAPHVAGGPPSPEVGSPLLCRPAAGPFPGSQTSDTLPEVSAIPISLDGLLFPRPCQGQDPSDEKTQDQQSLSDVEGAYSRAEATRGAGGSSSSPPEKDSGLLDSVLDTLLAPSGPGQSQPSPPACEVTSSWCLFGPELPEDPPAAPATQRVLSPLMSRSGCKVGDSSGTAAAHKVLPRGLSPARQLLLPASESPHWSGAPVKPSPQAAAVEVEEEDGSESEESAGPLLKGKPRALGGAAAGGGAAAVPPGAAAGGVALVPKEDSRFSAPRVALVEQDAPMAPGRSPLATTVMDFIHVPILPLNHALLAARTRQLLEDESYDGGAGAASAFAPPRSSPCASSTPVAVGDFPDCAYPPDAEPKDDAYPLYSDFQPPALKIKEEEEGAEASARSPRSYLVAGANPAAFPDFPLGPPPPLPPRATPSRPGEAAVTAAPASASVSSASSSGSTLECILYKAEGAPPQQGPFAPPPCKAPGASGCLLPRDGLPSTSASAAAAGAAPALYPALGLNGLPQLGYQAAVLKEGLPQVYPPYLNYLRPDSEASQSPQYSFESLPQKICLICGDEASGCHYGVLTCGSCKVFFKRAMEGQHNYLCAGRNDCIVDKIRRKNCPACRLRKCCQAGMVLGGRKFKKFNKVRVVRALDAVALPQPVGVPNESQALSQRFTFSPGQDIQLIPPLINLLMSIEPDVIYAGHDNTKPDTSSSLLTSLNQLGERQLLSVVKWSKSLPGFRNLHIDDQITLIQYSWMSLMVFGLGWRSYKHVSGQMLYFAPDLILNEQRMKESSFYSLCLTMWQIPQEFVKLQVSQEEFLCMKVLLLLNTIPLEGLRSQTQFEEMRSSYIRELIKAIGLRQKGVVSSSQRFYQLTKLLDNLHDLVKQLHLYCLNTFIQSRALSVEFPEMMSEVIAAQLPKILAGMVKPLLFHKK

Experiment [7] has as its target Sodium-dependent noradrenaline transporter (Homo sapiens, UniProt P23975).
In another experiment the target is Acetylcholinesterase (Homo sapiens, UniProt P22303). It is filed as functional.
For experiment [8], the target named is 3',5'-cyclic-AMP phosphodiesterase 4A (Homo sapiens, UniProt P27815). In kind it is functional.
Sequence of 3',5'-cyclic-AMP phosphodiesterase 4A (P27815 whole entry): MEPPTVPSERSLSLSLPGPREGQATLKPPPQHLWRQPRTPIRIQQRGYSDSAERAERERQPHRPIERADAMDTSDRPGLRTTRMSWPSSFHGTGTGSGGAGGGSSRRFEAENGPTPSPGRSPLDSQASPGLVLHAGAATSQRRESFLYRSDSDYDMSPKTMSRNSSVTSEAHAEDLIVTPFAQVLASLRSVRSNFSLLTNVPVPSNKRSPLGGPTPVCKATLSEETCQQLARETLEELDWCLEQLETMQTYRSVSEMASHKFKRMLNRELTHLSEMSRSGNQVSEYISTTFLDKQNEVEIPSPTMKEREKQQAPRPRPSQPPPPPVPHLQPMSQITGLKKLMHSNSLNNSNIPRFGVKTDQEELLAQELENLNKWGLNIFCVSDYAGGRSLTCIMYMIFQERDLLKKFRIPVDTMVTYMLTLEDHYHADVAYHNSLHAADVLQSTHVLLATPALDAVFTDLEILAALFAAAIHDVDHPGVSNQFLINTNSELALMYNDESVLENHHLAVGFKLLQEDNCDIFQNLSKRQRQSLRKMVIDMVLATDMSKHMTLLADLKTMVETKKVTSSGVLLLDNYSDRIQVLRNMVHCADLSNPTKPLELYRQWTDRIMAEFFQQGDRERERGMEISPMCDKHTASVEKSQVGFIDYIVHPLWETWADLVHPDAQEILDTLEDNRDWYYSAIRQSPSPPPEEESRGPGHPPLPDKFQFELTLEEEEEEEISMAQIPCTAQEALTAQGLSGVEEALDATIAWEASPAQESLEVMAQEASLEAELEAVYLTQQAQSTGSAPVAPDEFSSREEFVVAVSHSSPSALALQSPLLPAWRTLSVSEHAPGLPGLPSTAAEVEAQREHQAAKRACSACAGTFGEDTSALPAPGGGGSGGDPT
Experiment [9] has as its target T2, Thromboxane A2 receptor. In kind it is functional, cell-based. The source holds these as a separate data set.

Bounds are passed on as bounds.
Also: assay procedure not described here.

Sequence of Histamine H3 receptor (Q9Y5N1 whole entry): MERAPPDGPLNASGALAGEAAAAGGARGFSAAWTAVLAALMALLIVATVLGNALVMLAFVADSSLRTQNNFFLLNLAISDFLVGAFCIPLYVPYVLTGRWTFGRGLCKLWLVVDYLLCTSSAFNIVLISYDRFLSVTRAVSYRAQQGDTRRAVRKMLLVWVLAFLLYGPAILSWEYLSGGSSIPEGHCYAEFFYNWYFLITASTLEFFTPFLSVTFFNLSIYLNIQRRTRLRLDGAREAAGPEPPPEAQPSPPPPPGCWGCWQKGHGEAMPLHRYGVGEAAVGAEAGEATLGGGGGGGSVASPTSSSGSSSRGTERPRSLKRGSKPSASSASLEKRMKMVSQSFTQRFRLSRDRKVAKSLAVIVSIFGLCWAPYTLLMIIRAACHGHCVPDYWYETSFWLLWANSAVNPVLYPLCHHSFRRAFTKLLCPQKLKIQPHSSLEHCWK
Sequence of cGMP-inhibited 3',5'-cyclic phosphodiesterase 3A (Q14432 whole entry): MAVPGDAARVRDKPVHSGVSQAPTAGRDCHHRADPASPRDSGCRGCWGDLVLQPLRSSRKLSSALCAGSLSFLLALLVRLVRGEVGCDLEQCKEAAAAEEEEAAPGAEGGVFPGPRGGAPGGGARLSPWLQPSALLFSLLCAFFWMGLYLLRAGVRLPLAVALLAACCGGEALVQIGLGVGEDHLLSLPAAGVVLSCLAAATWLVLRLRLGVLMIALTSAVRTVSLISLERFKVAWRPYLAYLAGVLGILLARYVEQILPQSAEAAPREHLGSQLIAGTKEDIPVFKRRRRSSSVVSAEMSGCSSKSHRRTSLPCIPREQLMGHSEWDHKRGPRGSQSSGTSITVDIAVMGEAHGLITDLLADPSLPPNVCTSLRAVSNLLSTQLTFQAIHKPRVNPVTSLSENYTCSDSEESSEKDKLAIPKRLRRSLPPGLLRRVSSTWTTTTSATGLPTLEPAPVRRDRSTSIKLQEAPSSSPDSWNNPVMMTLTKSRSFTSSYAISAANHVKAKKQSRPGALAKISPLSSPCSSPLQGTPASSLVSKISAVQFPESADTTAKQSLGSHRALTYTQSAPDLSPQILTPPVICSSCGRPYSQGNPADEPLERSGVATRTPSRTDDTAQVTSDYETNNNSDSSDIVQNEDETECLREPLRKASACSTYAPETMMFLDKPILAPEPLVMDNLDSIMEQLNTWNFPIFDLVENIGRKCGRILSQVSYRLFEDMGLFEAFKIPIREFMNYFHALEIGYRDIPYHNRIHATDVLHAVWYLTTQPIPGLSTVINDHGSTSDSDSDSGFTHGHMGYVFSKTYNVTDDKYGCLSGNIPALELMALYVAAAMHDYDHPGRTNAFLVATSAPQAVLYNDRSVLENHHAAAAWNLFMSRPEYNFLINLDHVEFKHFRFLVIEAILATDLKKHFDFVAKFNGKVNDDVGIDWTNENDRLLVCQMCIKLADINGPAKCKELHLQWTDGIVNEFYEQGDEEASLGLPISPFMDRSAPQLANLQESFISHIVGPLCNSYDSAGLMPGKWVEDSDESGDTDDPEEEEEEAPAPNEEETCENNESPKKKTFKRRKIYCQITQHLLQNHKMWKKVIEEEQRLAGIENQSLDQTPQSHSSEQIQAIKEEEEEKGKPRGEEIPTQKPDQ
Sequence of D(3) dopamine receptor (P35462 whole entry): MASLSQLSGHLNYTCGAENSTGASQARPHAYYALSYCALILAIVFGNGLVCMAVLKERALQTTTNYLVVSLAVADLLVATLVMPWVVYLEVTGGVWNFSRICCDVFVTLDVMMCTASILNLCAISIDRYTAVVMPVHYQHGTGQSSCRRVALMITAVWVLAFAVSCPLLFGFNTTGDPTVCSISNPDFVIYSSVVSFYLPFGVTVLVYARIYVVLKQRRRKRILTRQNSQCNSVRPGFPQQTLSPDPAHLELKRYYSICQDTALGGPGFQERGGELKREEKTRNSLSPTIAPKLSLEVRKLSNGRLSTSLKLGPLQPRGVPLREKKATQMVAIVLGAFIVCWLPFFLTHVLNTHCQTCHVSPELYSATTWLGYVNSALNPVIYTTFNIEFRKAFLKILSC
Sequence of D(1A) dopamine receptor (P21728 whole entry): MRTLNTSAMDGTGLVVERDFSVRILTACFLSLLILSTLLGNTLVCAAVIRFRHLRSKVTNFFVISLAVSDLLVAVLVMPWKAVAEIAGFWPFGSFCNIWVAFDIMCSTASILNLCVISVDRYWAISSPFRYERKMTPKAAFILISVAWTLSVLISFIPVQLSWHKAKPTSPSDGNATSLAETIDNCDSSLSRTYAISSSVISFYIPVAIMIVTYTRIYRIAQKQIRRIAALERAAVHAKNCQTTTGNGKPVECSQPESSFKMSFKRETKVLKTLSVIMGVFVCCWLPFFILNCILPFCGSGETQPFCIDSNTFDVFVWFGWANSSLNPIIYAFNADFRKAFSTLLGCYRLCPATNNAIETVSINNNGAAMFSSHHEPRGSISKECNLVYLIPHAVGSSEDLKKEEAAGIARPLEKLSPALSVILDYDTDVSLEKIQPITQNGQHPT
Sequence of Sodium-dependent noradrenaline transporter (P23975 whole entry): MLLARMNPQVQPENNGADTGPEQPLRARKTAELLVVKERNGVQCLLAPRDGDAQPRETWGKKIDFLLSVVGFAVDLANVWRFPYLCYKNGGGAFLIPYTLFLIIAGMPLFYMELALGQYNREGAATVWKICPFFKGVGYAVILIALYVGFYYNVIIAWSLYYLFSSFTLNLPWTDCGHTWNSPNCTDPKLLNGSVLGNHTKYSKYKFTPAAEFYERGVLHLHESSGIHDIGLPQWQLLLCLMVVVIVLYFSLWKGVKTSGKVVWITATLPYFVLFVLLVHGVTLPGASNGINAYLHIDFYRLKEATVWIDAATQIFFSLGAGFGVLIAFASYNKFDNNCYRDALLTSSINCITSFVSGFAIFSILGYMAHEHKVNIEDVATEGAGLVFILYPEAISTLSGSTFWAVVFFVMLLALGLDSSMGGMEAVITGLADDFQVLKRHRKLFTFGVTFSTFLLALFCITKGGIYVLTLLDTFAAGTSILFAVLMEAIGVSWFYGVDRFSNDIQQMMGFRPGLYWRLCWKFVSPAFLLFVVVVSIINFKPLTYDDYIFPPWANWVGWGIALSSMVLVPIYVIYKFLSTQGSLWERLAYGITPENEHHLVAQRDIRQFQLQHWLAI

As usually defined, the AC50 is the concentration at which the activity in the assay is half-maximal. As for `C[C@@H](NCCCc1cccc(C(F)(F)F)c1)c1cccc2ccccc12`, at Bile salt export pump, the AC50 was 58 µM.
On to `COc1ccc(CC2c3cc(OC)c(OC)cc3CC[N+]2(C)CCC(=O)OCCCCCOC(=O)CC[N+]2(C)CCc3cc(OC)c(OC)cc3C2Cc2ccc(OC)c(OC)c2)cc1OC` (stereo not drawn), for which the AC50 at Bile salt export pump was determined as 170 µM.
Same read-out and setting: the figure for `CCN1CCN(Cc2ccc(Nc3ncc(F)c(-c4cc(F)c5nc(C)n(C(C)C)c5c4)n3)nc2)CC1` [ABEMACICLIB] is 33 µM.
On the same count and under the same terms, the result for `COc1ccccc1Oc1c(NS(=O)(=O)c2ccc(C(C)(C)C)cc2)nc(-c2ncccn2)nc1OCCO` [BOSENTAN] reads 18 µM; that for `CC(C(=O)O)c1ccc2c(c1)[nH]c1ccc(Cl)cc12` (stereo not drawn) [CARPROFEN], 120 µM; that for `COc1ccccc1OCCNCC(O)COc1cccc2[nH]c3ccccc3c12` (stereo not drawn) [CARVEDILOL], 79 µM.
In the case of `O=C1CCc2cc(OCCCCc3nnnn3C3CCCCC3)ccc2N1` [CILOSTAZOL], on Bile salt export pump, the AC50 worked out at 62 µM.
For `C[C@@H](Oc1cc(-c2cnn(C3CCNCC3)c2)cnc1N)c1c(Cl)ccc(F)c1Cl` [CRIZOTINIB], on Bile salt export pump, the half-maximal activity concentration (AC50) amounted to 154 µM.
Consider `O=C1CN(/N=C/c2ccc(-c3ccc([N+](=O)[O-])cc3)o2)C(O)=N1` [DANTROLENE], for which the AC50 on Bile salt export pump came to 35 µM.
Take `CN(C)CC[C@@H](c1ccc(Cl)cc1)c1ccccn1` [DEXCHLORPHENIRAMINE]: the half-maximal activity concentration (AC50) on Bile salt export pump is greater than 300 µM.
For `CC[C@@]1(O)C(=O)OCc2c1cc1n(c2=O)Cc2cc3c([N+](=O)[O-])cccc3nc2-1` [RUBITECAN], the AC50 (in experiment [1]; on D(3) dopamine receptor; at Histamine H3 receptor; in experiment [2]; in [3]; on Thromboxane A2 receptor [4]) was greater than 30 µM each time. Also, the AC50 in experiment [5] was greater than 30 µM; in experiment [6], greater than 30 µM; at Progesterone receptor, greater than 30 µM; in experiment [7], greater than 30 µM; on D(1A) dopamine receptor, greater than 30 µM; at Acetylcholinesterase it was 3.65 µM. In addition, the half-maximal activity concentration (AC50) is greater than 30 µM in [8] and greater than 10 µM on Thromboxane A2 receptor [9].
Consider `N[C@@H](CO)C(=O)O` [SERINE], for which the AC50 (in experiment [1]; on D(3) dopamine receptor; at Histamine H3 receptor; in [2]; in experiment [3]; at Thromboxane A2 receptor [4]) was greater than 30 µM in each case. Besides, the AC50 (in experiment [5]; in experiment [6]; at Progesterone receptor; in [7]; on D(1A) dopamine receptor; at Acetylcholinesterase) was greater than 30 µM each time. For the same compound, the AC50 (in [8]; on Thromboxane A2 receptor [9]) was greater than 30 µM each time.
On to `OC[C@H]1O[C@@](CO)(O[C@H]2O[C@H](CO)[C@@H](O)[C@H](O)[C@H]2O)[C@@H](O)[C@@H]1O` [SUCROSE], for which the AC50 (in experiment [1]; on D(3) dopamine receptor; at Histamine H3 receptor; in experiment [2]; in [3]; on Thromboxane A2 receptor [4]) was greater than 30 µM each time. Also, the AC50 (in experiment [5]; in experiment [6]; on Progesterone receptor; in experiment [7]; on D(1A) dopamine receptor; at Acetylcholinesterase) was greater than 30 µM in each case. In addition, the concentration at half-maximal activity (AC50) (in experiment [8]; at Thromboxane A2 receptor [9]) was greater than 30 µM each time.
As for `CC(C)OC(=O)CCC/C=C\C[C@@H]1[C@@H](/C=C/C(F)(F)COc2ccccc2)[C@H](O)C[C@@H]1O` [TAFLUPROST], the AC50 (in experiment [1]; at D(3) dopamine receptor; at Histamine H3 receptor; in experiment [2]; in experiment [3]; on Thromboxane A2 receptor [4]) was greater than 30 µM in each case. The AC50 (in experiment [5]; in [6]; at Progesterone receptor; in experiment [7]; at D(1A) dopamine receptor; at Acetylcholinesterase) was greater than 30 µM throughout. Also, the half-maximal activity concentration (AC50) in [8] is greater than 30 µM; at Thromboxane A2 receptor [9], 29.6 µM.
As to `C[C@]1(Cn2ccnn2)[C@H](C(=O)O)N2C(=O)C[C@H]2S1(=O)=O` [TAZOBACTAM], the AC50 (in [1]; at D(3) dopamine receptor; at Histamine H3 receptor; in [2]; in experiment [3]; on Thromboxane A2 receptor [4]) was greater than 30 µM each time. For the same compound, the AC50 (in [5]; in experiment [6]; on Progesterone receptor; in [7]; at D(1A) dopamine receptor; at Acetylcholinesterase) was greater than 30 µM each time. The half-maximal activity concentration (AC50) (in experiment [8]; at Thromboxane A2 receptor [9]) was greater than 30 µM in each case.
On to `CC[C@H]1OC(=O)[C@H](C)C(=O)[C@H](C)[C@@H](O[C@@H]2O[C@H](C)C[C@H](N(C)C)[C@H]2O)[C@](C)(OC)C[C@@H](C)C(=O)[C@H](C)[C@H]2N(CCCCn3cnc(-c4cccnc4)c3)C(=O)O[C@]12C` [TELITHROMYCIN], for which the AC50 (in experiment [1]; at D(3) dopamine receptor; at Histamine H3 receptor; in experiment [2]; in experiment [3]; at Thromboxane A2 receptor [4]) was greater than 30 µM in each case. The AC50 in experiment [5] is greater than 30 µM; in experiment [6], 20.6 µM; on Progesterone receptor it was greater than 30 µM; in [7] it was greater than 30 µM; at D(1A) dopamine receptor, greater than 30 µM; on Acetylcholinesterase, greater than 30 µM. Moreover, the AC50 (in experiment [8]; on Thromboxane A2 receptor [9]) was greater than 30 µM throughout.
As for `CC(=O)Oc1cc(C(F)(F)F)ccc1C(=O)O` [TRIFLUSAL], the concentration at half-maximal activity (AC50) (in experiment [1]; at D(3) dopamine receptor; at Histamine H3 receptor; in experiment [2]; in experiment [3]; on Thromboxane A2 receptor [4]) was greater than 30 µM throughout. Besides, the AC50 (in experiment [5]; in experiment [6]; on Progesterone receptor; in [7]; on D(1A) dopamine receptor; on Acetylcholinesterase) was greater than 30 µM throughout. Besides, the AC50 (in experiment [8]; on Thromboxane A2 receptor [9]) was greater than 30 µM each time.

The values above are taken from ChEMBL document CHEMBL5291721, “A preclinical secondary pharmacology resource illuminates target-adverse drug reaction associations of marketed drugs” (Nat Commun, 2023).
